Results published in patent publication US7022520B2, “Cell culture media for mammalian cells” (University of Pittsburgh, priority 1996, dated 2006).

What was measured:
hepatocytes = test: Hepatocytes between two type I collagen gel layers in HBM: ductular/acinar structures and proliferation; format: cell-based, rat; details: for phenotype of hepatocytes between two collagen gel layers: HBM supplemented with the growth factor, 15 day cultures
Description: (§1) Collagen gels were prepared as described by Michalopoulos, G. K., et al., Exp. Cell. Res. 94:70 (1975), the disclosure of which is incorporated herein by reference. Dry coating of plates with collagen and Matrigel was also performed as specified by the manufacturer. Matrigel gels were made by adding 50 μl of Matrigel solution into 0.5 ml of medium directly on the top of attached cells.
Hepatocytes maintained between two collagen gel layers retain their morphology and differentiation for prolonged time periods as described by Michalopoulos, G. K., et al., J. Cell. Physiol. 156:443 (1993), the disclosure of which is incorporated herein by reference. Hepatocytes maintained in collagen gel sandwiches in cultures with convential media containing HGF/SF undergo intense proliferation, form prominent projections, and eventually become organized in structures reminiscent of the hepatic plates. The behavior of hepatocytes maintained between two layers of collagen gel as previously described was examined, but in the presence of HBM supplemented with either HGF/SF or EGF as described above. […] These became prominent and encompassed most of the cells present in the cultures. Starting from approximately day 10 and by day 15 most of the cells in the culture were arranged in such ductular structures. Histologic sections are shown in FIG. 7B (light microscopy) and FIGS. 7C and 7D (electron microscopy). […] Some of the cells surrounding these structures were very attenuated and had light and electron microscopic appearance identical to bile duct epithelium. Others however are larger and resemble more closely the ductular hepatocytes described in previous studies of in vivo models. The proliferation of cells (data not shown) under either EGF or HGF/SF in the collagen gel sandwiches was much less (<25% at the highest peak) than that seen in the cultures on plastic coated with dry collagen. Most proliferation ceased by day 10 and the duct-like structures appeared after cell proliferation had ceased (days 10–15). […]

[1] = test system: proliferating hepatocytes; test: Matrigel overlay: reversion of proliferating hepatocytes to mature hepatocyte morphology; format: cell-based, rat; details: Matrigel overlay with 20 mM hydroxyurea
Description: To assess whether differentiation to mature hepatocyte morphology required DNA synthesis, 20 mM hydroxurea was added to the HBM media. […] Hydroxyurea was added to cultures before the Madrigel overlay and maintained throughout the next 5-day period.

[2] = test system: proliferating hepatocytes; test: DNA synthesis in hepatocyte cultures (tritiated thymidine uptake); format: cell-based, rat; details: for DNA synthesis: 20 mM, 5-day period
Description: (§2) DNA synthesis was measured by the uptake of tritiated thymidine into trichloroacetic acid (TCA) precipitable material as described by Kost, D. P., et al. (1991), cited above. Collagen gels, where necessary, were digested with 2 mg of collagenase per ml of MEM medium used. Incubation was then carried out for 30 minutes at 37° C. The digested gels were treated with NaOH followed by TCA to precipitate DNA, RNA, and proteins as described by Kost, D. P., et al. (1991), cited above.
To assess whether differentiation to mature hepatocyte morphology required DNA synthesis, 20 mM hydroxurea was added to the HBM media. This has been shown (Michalopoulos, G. K., et al., Cancer Res. 38:1866 (1978), the disclosure of which is incorporated herein by reference) to abolish scheduled semiconservative DNA synthesis in hepatocytes by inhibiting ribonucleotide reductase. Hydroxyurea was added to cultures before the Madrigel overlay and maintained throughout the next 5-day period.
Hepatocytes maintained between two collagen gel layers retain their morphology and differentiation for prolonged time periods as described by Michalopoulos, G. K., et al., J. Cell. Physiol. 156:443 (1993), the disclosure of which is incorporated herein by reference. Hepatocytes maintained in collagen gel sandwiches in cultures with convential media containing HGF/SF undergo intense proliferation, form prominent projections, and eventually become organized in structures reminiscent of the hepatic plates. The behavior of hepatocytes maintained between two layers of collagen gel as previously described was examined, but in the presence of HBM supplemented with either HGF/SF or EGF as described above. […] These became prominent and encompassed most of the cells present in the cultures. Starting from approximately day 10 and by day 15 most of the cells in the culture were arranged in such ductular structures. Histologic sections are shown in FIG. 7B (light microscopy) and FIGS. 7C and 7D (electron microscopy). […]

[3] = test system: cytochrome P450 IIB1 mRNA; test: Northern blot of cytochrome IIB1 mRNA induction; details: PB added at day 10 of culture, harvest at day 15; with or without Matrigel at day 8; FIG. 6E
Description: Extraction of Total RNA and mRNA from Cultures. Total RNA was extracted from unwashed cell cultures using 2.0 ml of RNAzol B (BioTec) per well and purified per the manufacturer's guidelines. RNA concentration and purity were determined by routine spectrophotometry. Size separation of 20 μg RNA per lane was completed on denaturing it agarose gels and transferred to nylon membranes (Amersham, Arlington Heights, Ill.) by the capillary method. After cross-linking under UV light, the membranes were hybridized overnight with specific cDNAs (as indicated in the figures) that had been labeled with [α-^32P]dCTP using an Amersham random primer kit. Membranes were subsequently washed under high stringency conditions and exposed to XAR film (Eastman Kodak, Rochester, N.Y.) for 1–3 days. Quantification of the RNA hybridization bands were performed by laser densitometry.
The effect of Phenobarbitol (PB) on the levels of cytochrome P450 IIB1 mRNA in the Matrigel-treated cultures was also measured as shown in FIG. 6E. Matrigel was added to the cultures at day 8. PB was added 2 days later (day 10 of culture). The cells were harvested 5 days after addition of PB (day 15 in culture).

rat hepatocytes [4] = test: Hepatocyte proliferation in HBM supplemented with growth factors (total DNA per culture, thymidine uptake, BRdU labeling); format: cell-based; details: FIG. 2; for cell proliferation, total amount of DNA per culture at day 15: growth factor added individually to HBM medium
Source text: Rat hepatocytes were isolated by an adaptation of the calcium two step collagenase perfusion technique as taught by Kost, D. P., et al, J. Cell. Physiol. 147:274 (1991), the disclosure of which is incorporated herein by reference. All such preparations were designed to obtain a population of pure hepatocytes. […] After isolation of hepatocytes, the cells were suspended in a media used for cell attachment to the culture plates. This media was MEM (GIBCO 12570) with NEAA (GIBCO 11140), insulin 5 mg/L, and gentamycin 5 μg/ml. Hepatocytes were plated on a single layer of collagen coating as described below and left to attach for 2 hours. Six-well cluster plates (9.8 square centimeters […]) from Corning were used. For experiments where hepatocytes were not going to be induced to proliferate, or where assessments of differentiated function were performed, the cells were plated at a density of 80,000 hepatocytes per square centimeter of surface area. For experiments intended to induce proliferation or genetic transduction with foreign DNA, cells were plated at an initial density of 1,000 or 10,000 hepatocytes per square centimeter of surface area. The plating medium was replaced with the invention HBM medium at 2 hours after the cells were plated and every 48 hours thereafter. Thymidine, growth factors, and other ingredients, were added at the time of medium change as required.
as §2
FIGS. 1A and 1B show the uptake of thymidine per μg DNA, as well as the BRdU nuclear labeling index at different days in culture in cells growing in the presence of HGF/SF and EGF (40, 20 ng/ml respectively) as described above. […] By day 15 the cultures were confluent and DNA synthesis slowed down.
The growth factors HGF/SF, EGF, TGFα, KGF (keratinocyte growth factor), SCF (stem cell factor), and aFGF (acidic fibroblast growth factor) were added individually to HBM medium. […] The total DNA per culture is shown as a function of the time in culture. […] The DNA per culture at day 15 was 12 times that at time 0, reflecting the increase in cell number. […] TGFα alone was more mitogenic than either HGF/SF or EGF alone.

rat hepatocytes [5] = test: Effect of matrix substrates on hepatocyte growth (total DNA per culture at day 15); format: cell-based; details: dry coating of plates; HBM with HGF/SF 40 ng/ml and EGF 20 ng/ml; FIG. 3
Description: as §1
Several matrix substrates promoted cell growth in this system. […] The cells were cultured as described above. […] Coating with type I collagen (Vitrogen commercial preparation) was the standard method used for the experiments unless otherwise specified. The effect of matrix gels in promoting specific phenotypic conversions in these cultures is further discussed below.

NC(=O)NO [Hydroxyurea]
formation of the ductular structures under inhibition of DNA synthesis (hepatocytes; collagen gel sandwich, data not shown): did not affect the formation of the ductular structures
conversion of the proliferating hepatocytes to mature hepatocyte morphology [1]: entirely unaffected
DNA synthesis ([2]; cultures in the presence of Matrigel): 6.27 % of control (without hydroxyurea)
DNA synthesis ([2]; proliferating cultures in the absence of Matrigel): 3.93 % of the control (without hydroxyurea)
DNA synthesis (inhibition down to) ([2]; collagen gel sandwich cultures, data not shown): 5.1 % of control

CCC1(c2ccccc2)C(=O)NC(=O)NC1=O [PB, Phenobarbitol]
levels of cytochrome P450 IIB1 mRNA [3]: induced cytochrome IIB1 mRNA only in the Matrigel-treated cultures

EGF: epidermal growth factor
phenotype of hepatocytes between two collagen gel layers (hepatocytes): underwent the typical phenotypic transitions
cell proliferation, total amount of DNA per culture at day 15 (rat hepatocytes [4]): significant cell proliferation

HGF/SF: Hepatocyte growth factor, also known as scatter factor
phenotype of hepatocytes between two collagen gel layers (hepatocytes): multiple duct-shaped structures
cell proliferation, total amount of DNA per culture at day 15 (rat hepatocytes [4]): significant cell proliferation

SCF: stem cell factor
cell proliferation, total amount of DNA per culture at day 15 (rat hepatocytes [4]): no proliferative effect

TGFα: transforming growth factor a
proliferative effect compared with the other mitogens (rat hepatocytes [4]; HBM medium, 15 days): stronger proliferative effect than any of the other mitogens when added alone
cell proliferation, total amount of DNA per culture at day 15 (rat hepatocytes [4]): significant cell proliferation

aFGF: acidic fibroblast growth factor
cell proliferation, total amount of DNA per culture at day 15 (rat hepatocytes [4]): no proliferative effect

fibronectin
promotion of cell growth, total DNA per culture at day 15 (rat hepatocytes [5]): equally effective in promoting cell growth

laminin
promotion of cell growth, total DNA per culture at day 15 (rat hepatocytes [5]): equally effective in promoting cell growth

type I (bovine): bovine skin collagen type I, dry coating matrix substrate
promotion of cell growth, total DNA per culture at day 15 (rat hepatocytes [5]): equally effective in promoting cell growth

B1: KGF: keratinocyte growth factor (protein, UniProt P21781 32-194, looked up)
Fibroblast growth factor 7: CNDMTPEQMATNVNCSSPERHTRSYDYMEGGDIRVRRLFCRTQWYLRIDKRGKVKGTQEMKNNYNIMEIRTVAVGIVAIKGVESEFYLAMNKEGKLYAKKECNEDCNFKELILENHYNTYASAKWTHNGGEMFVALNQKGIPVRGKKTKKEQKTAHFLPMAIT
cell proliferation, total amount of DNA per culture at day 15 (rat hepatocytes [4]): no proliferative effect
